Data reported in patent US9163018B2, “Method of treatment of age-related macular degeneration (AMD)” (Prana Biotechnology Limited, priority 2006, dated 2015).

How the values were obtained:
[1] = test system: dityrosine oligomerization; test: CuTy: inhibition of dityrosine oligomerization; assay type: biochemical; settings: referenced to in-house standard (set as 100% inhibition)
[2] = Mice plasma concentration after oral dose; assay type: in vivo; settings: 30 min to 4 h after single or repeat oral dose of 30 mg/kg
[3] = test system: M17 human neuroblastoma cells; test: Cytotoxicity, M17 human neuroblastoma cells; assay type: cell-based; settings: for Cytotox (% viable) M17 cells at 1 μM: 1 μM test compound; for Cytotox (% viable) M17 cells at 10 μM: 10 μM test compound
Method: Assay 3. MTS Assay for Cell Viability
Cell viability is determined using the MTS assay. Culture medium is replaced with fresh neurobasal medium plus B27 supplements minus antioxidants. 1/10th volume MTS solution (Cell Titre 96 Aqueous One, Promega Corporation) and incubated at 37° C., 2 hrs. 200 microliter aliquots are measured with a spectrophotometer at 560 nm.

[4] = test system: Aβ deposits; settings: daily oral gavage 30 mg/kg, 9 weeks, 13-14 months old transgenic mice
[5] = molecular target: T1, Abeta:Zn (25:50 μM) Synthetic Aggregations (Homo sapiens, UniProt P05067); test: Disaggregation of Abeta:Zn synthetic aggregates (ThT fluorescence); assay type: biochemical; settings: for Disaggregation % Aggregate reduction at 5 μM: 5 μM test compound; for EC50: Abeta:Zn 25:50 μM aggregates
T1 construct: PB Compound Mediated Dissolution of Aggregated Abeta 1-42; purchased Keck Laboratory, Yale University School of Medicine
T1 sequence (P05067 672-713 limits assumed): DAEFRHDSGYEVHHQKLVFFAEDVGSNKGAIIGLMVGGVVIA
Method in brief: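 Abeta1-42 (25 μM) with ZnCl2 (50 μM) and ThT (50 μM) in PBS pH 6.6 was preaggregated 24 h at 37 degrees with rotation. Aggregates were then exposed to compound (final 1-50 μM, DMSO) for 2 h at 37 degrees. ThT fluorescence was read at ex 450/em 480 nm.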

[6] = test system: primary cortical neuronal cultured cells; test: Test compound cytotoxicity, MTS assay, primary cortical neuronal cultures; assay type: cell-based, mouse; settings: for Cytotox (% viable) Neuronal cells at 1 μM: 1 μM test compound; for Cytotox (% viable) Neuronal cells at 10 μM: 10 μM test compound
Method in brief: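 Primary cortical neurons were cultured five days in Neurobasal/B27, then exposed on day six to compounds (from 2.5 mM DMSO stocks) in medium minus antioxidants, in triplicate for 4 days at 37° C. Viability was measured by MTS, 2 h at 37° C, absorbance at 560 nm.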

[7] = Toxicity, visual observations in mice; settings: 30 mg/kg; duration and visual observations
[8] = molecular target: T2, Aβ 1-42 (Homo sapiens, UniProt P05067); test: Fluorometric H2O2 assay (inhibition of Abeta H2O2 production); assay type: biochemical; settings: concentration required to inhibit 50% of Abeta H2O2 production; read-out: H2O2 IC50
T2 construct: The reaction solutions contained Aβ 1-42 at concentrations
T2 sequence (P05067 672-713 limits assumed): as above
Method in brief: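 Copper-dependent Aβ H2O2 production measured fluorometrically with deacetylated dichlorofluorescein plus HRP in PBS, pH 7.4. Incubation 60 min at 37 C, test compound included in wells. H2O2 quantified against H2O2 standards.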

SMILES	CuTy % inhibition of dityrosine oligomerization [1]	Mice plasma concentration [2]	Cytotox (% viable) M17 cells at 1 μM [3] [%]	Cytotox (% viable) M17 cells at 10 μM [3] [%]	Tg Mice % difference from control in Amyloid plaque abundance [4]	Tg Mice % difference from control in insoluble brain amyloid burden [4]	Tg Mice % difference from control in soluble brain amyloid burden [4]	Disaggregation % Aggregate reduction at 5 μM [5] [%]	EC50 [5] [µM]	Cytotox (% viable) Neuronal cells at 1 μM [6] [%]	Cytotox (% viable) Neuronal cells at 10 μM [6] [%]	Toxicity at 30 mg/kg [7]	IC50 [8] [µM]
Br.CNCc1nc2c(O)c(Cl)cc(Cl)c2c(=O)n1C [PB 1161]	100% inhib	Up to 510.4 ng/mL	101.4	112.5	−64%	No change	No change	27	> 20	105.4	103.9	10 days, none	
O=C(O)CCCn1cnc2c(O)c(Cl)cc(Cl)c2c1=O [PB 1255]	CuTy: 125% inhibition	Up to 17008 ng/ mL ng/mL	109.7	102.9						97.9	98.0	10 days, none	0.93
Cn1nccc1-n1cnc2c(O)c(Cl)cc(Cl)c2c1=O [PB 1262]	CuTy No effect	Up to 7107 ng/ mL ng/mL	106.5	94.2						104.6	83.7	10 days, none (16/11/05)	0.94
O=c1c2c(Cl)cc(Cl)c(O)c2ncn1CC1CC1 [PB-1076]	100% inhibit	Up to 2698 ng/ mL in mice ng/mL	96.2	76.8	−29%	−26%	−37%	15.1	> 20	116	105	11 days, none	
O=c1c2c(Cl)cc(Cl)c(O)c2ncn1Cc1ccccn1 [PB-1077]	CuTy: 50% inhibition	Up to 984 ng/ mL in mice ng/mL	97.7	91	−30%	No change	No change	24	> 20	99	98	10 days, none	
Cc1nc(Cn2cnc3c(O)c(Cl)cc(Cl)c3c2=O)cs1 [PB-1084]	CuTy: 75% inhibition	Up to 2439 ng/ mL ng/mL	97	95.7	decrease	No change	−29%	23.4	40.7	100	93	10 days, none	
Cc1noc(C)c1Cn1cnc2c(O)c(Cl)cc(Cl)c2c1=O [PB-1085]	CuTy: 90% inhibition	Up to 3644 ng/ mL ng/mL	104.9	76.2	−43%	−34%	increase	25	> 20	99	72	10 days, none	
